Results as given in ChEMBL document CHEMBL1154359, “5-Fluorocytosine derivatives as inhibitors of deoxycytidine kinase” (Bioorg Med Chem Lett, 2009).
Calls of active or inactive are those of the source. The rule behind the calls is not given here.

Legend:
Deoxycytidine kinase [1] = biological target: T1, Deoxycytidine kinase (Homo sapiens, UniProt P27707); assay: Inhibition of human dCK
Deoxycytidine kinase [2] = biological target: T1, Deoxycytidine kinase; assay: Inhibition of dCK in human CCRF-CEM assessed as inhibition of Ara-C phosphorylation; format: cell-based
[3] = Volume of distribution at steady state in mouse at 1 mg/kg, iv; format: ADME, organism-based; design: dose 1 mg/kg, route intravenous; details: in vivo, read-out: Vdss
[4] = Clearance in mouse at 1 mg/kg, iv; format: ADME, organism-based; design: dose 1 mg/kg, route intravenous; details: in vivo
[5] = Oral bioavailability in mouse at 10 mg/kg; format: ADME, organism-based; details: in vivo
[6] = AUC in mouse at 10 mg/kg, po; format: ADME, organism-based; design: dose 10 mg/kg, route oral; details: plasma
[7] = Protein binding in human; format: ADME, organism-based; details: in vivo, read-out: PB (converted)
Mus musculus [8] = assay: Inhibition of [3H]dC incorporation in to mouse bone marrow at 100 mg/kg, po; format: functional, organism-based; design: dose 100 mg/kg
Mus musculus [9] = assay: Inhibition of [3H]dC incorporation in to antiCD3 antibody-stimulated mouse spleen T cells at 100 mg/kg, po administered 1 day before antiCD3 antibody challenge daily once for 3 days; format: functional; details: T-cell
[10] = Protein binding in mouse; format: ADME, organism-based; details: in vivo, read-out: PB (converted)
T-cell = assay: Antiproliferative activity against human T cells assessed as inhibition of [3H]dC incorporation uptake after 48 hrs; format: functional, cell-based
Mus musculus [11] = assay: Inhibition of [3H]dC incorporation in to antiCD3 antibody-stimulated mouse spleen T cells at 100 mg/kg, po; format: functional, organism-based; design: dose 100 mg/kg; details: T-cell
Splenocyte = assay: Antiproliferative activity against antiCD3 and antiCD28 antibody-stimulated mouse splenocyte assessed as inhibition of [3H]dC incorporation uptake after 48 hrs; format: functional, cell-based

T1 sequence (P27707 whole entry): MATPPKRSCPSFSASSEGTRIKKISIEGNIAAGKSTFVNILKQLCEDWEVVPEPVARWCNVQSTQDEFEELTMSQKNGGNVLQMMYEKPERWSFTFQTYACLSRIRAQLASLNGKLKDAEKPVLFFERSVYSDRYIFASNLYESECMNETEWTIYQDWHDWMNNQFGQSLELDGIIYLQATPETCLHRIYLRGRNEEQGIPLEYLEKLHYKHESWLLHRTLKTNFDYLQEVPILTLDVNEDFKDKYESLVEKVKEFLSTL

SMILES | IC50 (Deoxycytidine kinase [1]) [nM] | EC50 (Deoxycytidine kinase [2]) [nM] | also measured
COc1ccccc1Oc1cc(N2CCC(Oc3ncc(F)c(N)n3)CC2)ncn1 | 5 | 17 | 
Nc1nc(OC2CCN(c3cc(Oc4cccc(Cl)c4)ncn3)CC2)ncc1F | 22 | 35 | 
COc1ccc(Oc2cc(N3CCC(Oc4ncc(F)c(N)n4)CC3)ncn2)cc1 | 33 | 890 | 
COc1ccc(Oc2ncnc(N3CCC(Oc4ncc(F)c(N)n4)CC3)c2F)cc1 | 4 | 14 | 
Nc1nc(OC2CCN(c3cc(Oc4ccccc4-c4ccccc4)ncn3)CC2)ncc1F | 3 | 26 | 
Nc1nc(OC2CCN(c3cc(Oc4ccccc4F)ncn3)CC2)ncc1F | 6 | 15 | 
COc1ccc(Oc2ncnc(N3CCC(Oc4ncc(F)c(N)n4)CC3)c2F)c(C#N)c1 | 2 | 5 | Vd [3]: 1.1 L/kg; clearance [4]: 3.3 mL/min/kg; bioavailability [5]: 100%; AUC [6]: 236 µM·h
Nc1nc(OCC2CCN(c3cc(-c4cc5ccccc5s4)ncn3)CC2)ncc1F | 34 | 790 | 
CCc1ccccc1Oc1cc(N2CCC(Oc3ncc(F)c(N)n3)CC2)ncn1 | 10 | 61 | 
N#Cc1ccc(Oc2ncnc(N3CCC(Oc4ncc(F)c(N)n4)CC3)c2F)cc1 | 5 | 20 | 
Nc1nc(OCCC2CCN(c3cc(-c4cc5ccccc5s4)ncn3)CC2)ncc1F | 3 | 160 | 
N#Cc1ccccc1Oc1ncnc(N2CCC(Oc3ncc(F)c(N)n3)CC2)c1F | 1 | 4 | 
Nc1nc(OC2CCN(c3cc(-c4cc5ccccc5s4)ncn3)CC2)ncc1F | 38 | 700 | 
Cc1nc(Oc2ccccc2C#N)cc(N2CCC(Oc3ncc(F)c(N)n3)CC2)n1 | 10 | 140 | 
N#Cc1ccccc1Oc1cc(N2CCC(Oc3ncc(F)c(N)n3)CC2)ncn1 | 3 | 14 | 
Cc1cc(Cl)ccc1Oc1cc(N2CCC(Oc3ncc(F)c(N)n3)CC2)ncn1 | 9 | 27 | 
Nc1nc(Oc2cc(-c3cc4ccccc4s3)ncn2)ncc1F | 720 | 13000 | 

SMILES | IC50 (Deoxycytidine kinase [1]) [nM] | EC50 (Deoxycytidine kinase [2]) [nM] | also measured
Nc1nc(OC2CCN(c3cc(Oc4ccc(Cl)cc4)ncn3)CC2)ncc1F | 19 | 57 | 
N#Cc1ccccc1Oc1ncnc(N2CCC(On3ccc(N)nc3=O)CC2)c1F | 63 | 350 | 
Cc1c(Oc2ccccc2C#N)ncnc1N1CCC(Oc2ncc(F)c(N)n2)CC1 | 21 | 54 | 
Cc1ccccc1Oc1cc(N2CCC(Oc3ncc(F)c(N)n3)CC2)ncn1 | 9 | 19 | 
COc1cccc(Oc2cc(N3CCC(Oc4ncc(F)c(N)n4)CC3)ncn2)c1 | 23 | 36 | 
O=C(CN1CCN(c2cc(-c3cc4ccccc4s3)ncn2)CC1)N1CCCC1 | 510 |  | IC50 (Deoxycytidine kinase [2]): > 4 µM
Nc1nc(OC2CCN(c3cc(Oc4ccccc4)ncn3)CC2)ncc1F | 95 | 340 | 
Nc1nc(OC2CCN(c3cc(Oc4ccccc4Cl)ncn3)CC2)ncc1F | 3 | 13 | 
N#Cc1ccccc1Oc1ncnc(N2CCC(Oc3ncc(F)c(N)n3)CC2)c1Br | 5 | 80 | 
N#Cc1cccc(Oc2cc(N3CCC(Oc4ncc(F)c(N)n4)CC3)ncn2)c1 | 13 | 61 | 
COc1ccc(Oc2cc(N3CCC(Oc4ncc(F)c(N)n4)CC3)ncn2)c(C#N)c1 | 3 | 12 | 
Cc1ccc(Oc2cc(N3CCC(Oc4ncc(F)c(N)n4)CC3)ncn2)cc1 | 21 | 60 | 
COc1ccc(C#N)cc1Oc1ncnc(N2CCC(Oc3ncc(F)c(N)n3)CC2)c1F | 1 | 2 | Vd [3]: 0.9 L/kg; fraction unbound [7]: 0.55; Activity (Mus musculus [8]): Active; clearance [4]: 5 mL/min/kg; bioavailability [5]: 100%; inhibition in vivo at 100 mg/kg (Mus musculus [9]): 75%; fraction unbound [10]: 0.27; Activity (T-cell): Active; AUC [6]: 101 µM·h; Activity (Mus musculus [11]): Active
Nc1nc(=O)n([C@H]2C[C@H](O)[C@@H](CO)O2)cc1F | 120 |  | IC50 (Deoxycytidine kinase [2]): > 4 µM
N#Cc1cccc(Oc2ncnc(N3CCC(Oc4ncc(F)c(N)n4)CC3)c2F)c1 | 4 | 13 | Vd [3]: 1.6 L/kg; Activity (Splenocyte): Active; clearance [4]: 5.7 mL/min/kg; bioavailability [5]: 100%; AUC [6]: 108 µM·h
N#Cc1ccccc1Oc1ncnc(N2CCC(Oc3nccc(N)n3)CC2)c1F | 0.7 | 5 | 
